ChEMBL document CHEMBL1152139, “Pterocarpans and flavanones from Sophora flavescens displaying potent neuraminidase inhibition” (Bioorg Med Chem Lett, 2008)

Columns and labels:
[1] = Inhibition of Clostridium perfringens neuraminidase
[2] = Inhibition of Clostridium perfringens neuraminidase by Lineweaver-Burke plot
[3] = Inhibition of mouse liver sialidase

| Compound | IC50 [1] [µM] | Ki [2] [µM] | IC50 [3] [µM] |
| --- | --- | --- | --- |
| C=C(C)[C@H](CC=C(C)C)Cc1c(O)cc(O)c2c1O[C@H](c1ccc(O)cc1O)CC2=O [SOPHORAFLAVANONE G] | 13.5 | 20 | – |
| O=C(O)[C@H]1O[C@@H](Oc2c(O)c(O[C@@H]3O[C@H](C(=O)O)[C@@H](O)[C@H](O)[C@H]3O)c3oc(-c4ccc(O)cc4)cc(=O)c3c2O)[C@H](O)[C@@H](O)[C@@H]1O | – | – | 40 |
| OC[C@H]1O[C@@H](Oc2ccc3c(c2)OC[C@H]2c4cc5c(cc4O[C@@H]32)OCO5)[C@H](O)[C@@H](O)[C@@H]1O [TRIFOLIRHIZIN] | 237 | 190 | – |
| O=c1c2cc(O)c(O)cc2oc2cc(O)c([C@@H]3O[C@H](CO)[C@@H](O)[C@H](O)[C@H]3O)c(O)c12 [MANGIFERIN] | 16.2 | – | – |
| C=C(C)[C@H](CCC(C)(C)O)Cc1c(O)cc(OC)c2c1O[C@H](c1ccc(O)cc1O)CC2=O [KURARINOL] | 17 | 19.7 | – |
| C=C(C)[C@H](CCC(C)(C)O)Cc1c(O)cc(O)c2c1O[C@H](c1ccc(O)cc1O)CC2=O [NORKURARINOL] | 18.3 | 22.7 | – |
| C=C(C)C(CC=C(C)C)Cc1c(O)cc(OC)c2c1O[C@H](c1ccc(O)cc1O)CC2=O (stereo not given in full) [KURARINONE] | 15.1 | 18.8 | – |
| Oc1ccc2c(c1)OC[C@H]1c3cc4c(cc3O[C@@H]21)OCO4 [MAACKIAIN] | 3.2 | 2.1 | – |
| C=C(C)[C@H](CC=C(C)C)Cc1c(O)cc(O)c2c1O[C@H](c1ccccc1O)CC2=O [KUSHENOL A] | 14.8 | 17.1 | – |
| C=C(C)[C@H](CCC(C)(C)O)Cc1c(O)cc(O)c2c1O[C@H](c1ccccc1O)CC2=O [KUSHENOL T] | 12.1 | 10.8 | – |
| COc1ccc2c(c1)OC[C@H]1c3cc4c(cc3O[C@@H]21)OCO4 [PTEROCARPIN] | 1.4 | 1.7 | – |
